Patent publication US6689803B2, “Compositions and methods for treating surgical adhesions” (Angiotech Pharmaceuticals, Inc., priority 1996, dated 2004)

Columns and labels:
neutrophils = experiment: Superoxide anion generation by neutrophils; format: cell-based, human; conditions: 28 μM
Method: All experiments that studied neutrophil responses to crystals or zymosan in the presence of paclitaxel were performed using plasma opsonized CPPD or zymosan. Opsonization of crystals or zymosan was done with 50% heparinized plasma at a concentration of 75 mg of CPPD or 12 mg of zymosan per ml of 50% plasma Crystals or zymosan were incubated with plasma for 30 minutes at 37° C. and then washed in excess HBSS.
Neutrophil viability and purity was always greater than 90%.
Superoxide anion concentrations were measured using the superoxide dismutase inhibitable reduction of cytochrome C assay. Briefly, 25 mg of crystals or 0.5 mg of zymosan was placed in a 1.5 ml capped Eppendorf tube and warmed to 37° C. 0.5 ml of cells at 37° C. were added together with ferricytochrome C (final concentration 1.2 mg/ml) and the cells were activated by shaking the capped tubes. At appropriate times tubes were centrifuged at 10,000 g for 10 seconds and the supernatant collected for assay be measuring the absorbance of 550 nm. Control tubes were set up under the same conditions with the inclusion of superoxide dismutase at 600 units per ml.

human keratinocytes = experiment: Keratinocyte viable cell number (trypan blue exclusion); format: cell-based; conditions: 4 days
Method: Following incubation, cells were collected and counted by the trypan blue exclusion assay.

[1] = system: restenosis / intimal hyperplasia; experiment: Rat carotid artery balloon injury model of restenosis, perivascular treatment; format: in vivo; conditions: paclitaxel-loaded (20%) polymers (EVA film or PCL paste), 2.5 mg perivascular; 14 and 28 days
Method: WISTAR rats weighing 250 to 300 g were anesthetized by the intramuscular injection of Innovar (0.33 ml/kg). Once sedated they were then placed under Halothane anesthesia After general anesthesia was established, fur over the neck region was shaved, the skin clamped and swabbed with betadine. A vertical incision was made over the left carotid artery and the external carotid artery exposed. Two ligatures were placed around the external carotid artery and a transverse arteriotomy was made. […] The endothelium was denuded by passing the inflated balloon up and down the carotid artery three times. The catheter was then removed and the ligature tied off on the left external carotid artery. […] The wound was then closed.

NF-κB = NF-κB activity (cell-based) reporter assay in NIH-3T3; design: species or system murine; conditions: 6-hour and 24-hour treatments
Method: IL-1 and TNF were both identified as being proinflammatory cytokines that activate the transcription of genes driven by a transcription factor named NF-κB also involved in inflammatory processes. The inflammatory effect of IL-1 and TNF can therefore be indirectly assessed by means of a reporter gene assay (NF-κB) responding to IL-1 and TNF stimulation.
On day one, 5×10^4 NIH-3T3 (murine fibroblast), stably transfected with a NF-κB reporter construct (Luciferase, Promega Corp.), were plated per well (24-well plate). Once confluent (on day 3-4), cells were starved by replacing the complete medium with 1 ml of serum-free medium. Following a 24-hour starvation, cells were treated with various concentrations of anti-microtubule agents 6 hours prior to the addition of IL-1 (20 ng/ml) and TNF (20 ng/ml). Cells were exposed to IL-1 and TNF for 1 hour and 16 hours and NF-κB activity measured 24 hours later. On day five, the medium was discarded and the cells were rinsed once with PBS. Cells were then extracted for 15 minutes with 250 μl of lysis buffer (Promega Corp., Wisconsin). NF-κB transcriptional activity was assessed by adding 25 μl of luciferase substrate to a tube containing 2.5 μl of cell extract. The tube was immediately inserted in a luminometer (Turner Designs) and light emission measured for 10 seconds. The luciferase data were then normalized for protein concentration.

[2] = system: collagen-induced arthritis
Method: Syngeneic female Louvain rats weighing 120 to 150 grams were injected intradermally with 0.5 mg of native chick collagen II (Genzyme, Boston, Mass.) solubilized in 0.1 M acetic acid and emulsified in FIA (Difco, Detroit, Mich.). […] The control and experimental animals were evaluated for disease severity both clinically and radiographically by individuals blinded to treatment groups.
The severity of inflammation for each limb was evaluated daily and scored based on standardized levels of swelling and periarticular erythema (0 being normal and 4 severe). Animals were evaluated radiographically on day 28 of the experiment. The radiographs of both hind limbs were graded by the degree of soft tissue swelling, joint space narrowing, bone destruction, and periosteal new bone formation. A scale of 0-3 was used to quantify each limb (0=normal, 1=soft tissue swelling, 2=early erosions of bone, 3=severe bone destruction and/or ankylosis). Histological assessment of the joints was completed at the conclusion of the experiment.
Delayed-type hypersensitivity (DTH) to CII was determined by a radiometric ear assay completed on day 28. Radiometric ear indices≧1.4 represent a significant response to CII. The presence of anti-CII IgG antibodies was determined by enzyme-linked immunosorbent assay (ELISA).

LNCaP cells = experiment: LNCaP cell growth (crystal violet); format: cell-based, human; conditions: Homo sapiens, LNCaP, 120 h; 5 days; read-out: EC50
Method: LNCaP cells were seeded at concentrations of 2×10^3 and 1×10^3 cells/well respectively in 96 well plates. […] After incubation, the cells were fixed with 1% glutaraldehyde solution, and stained for 5 minutes with 0.5% crystal violet. The dye was successively eluted with 100 μl of buffer solution and the absorbance was read on a Titertek Multiskan microplate reader using a wavelength of 492 nm Absorbance. Cell growth was expressed as a percentage relative to control wells in the absence of the compound (set at 100%).

[3] = Stability of paclitaxel in cyclodextrin solutions; format: physicochemical
Text: The solutions containing 20% HPβCD or HPγCD had pH values of 3.9 and 5.2, respectively.

[4] = system: AP-1 transcriptional activity; experiment: IL-1 stimulated AP-1 driven CAT reporter gene in chondrocytes; format: cell-based; conditions: 10^−7 to 10^−5 M
Text: The data noted with an asterisk (*) have significance compared with IL-1-induced CAT activity according to a t-test, P<0.05. The results shown are representative of three independent experiments.

skin inflammation = experiment: Mouse ear skin inflammation (oxazolone delayed-type hypersensitivity, PMA)
Method: Briefly, mice were sensitized to oxazolone by topical application of the compound onto the skin. Five days later, mice were challenged with oxazolone by topical application onto the ear skin (left ear: oxazolone, right ear: vehicle alone), resulting in a cutaneous inflammatory, “delayed-type hypersensitivity” reaction. […] Epon-embedded, Giesma-stained, 1 μm tissue sections were evaluated for the presence of inflammatory cells, for the presence of tissue mast cells and their state of activation, and for the degree of epidermal hyperplasia.

[5] = system: AP-1 DNA binding activity; experiment: IL-1 induced AP-1 DNA binding (gel mobility shift); format: cell-based; conditions: 10^−7 to 10^−5 M, pretreated 24 hours
Method: Binding activity was assayed with a radiolabeled human AP-1 sequence probe and gel mobility shift assay. […] The “com” lane contains excess unlabeled AP-1 oligonucleotide. The results shown are representative of tree independent experiments.

SMILES: CC(=O)O[C@H]1C(=O)[C@@]2(C)[C@H]([C@H](OC(=O)c3ccccc3)[C@]3(O)C[C@H](OC(=O)[C@H](O)[C@@H](NC(=O)c4ccccc4)c4ccccc4)C(C)=C1C3(C)C)[C@]1(OC(C)=O)CO[C@@H]1C[C@@H]2O [paclitaxel]
- inhibition of superoxide anion production (neutrophils; opsonized zymosan): less dramatic than the inhibition of CPPD activation but was significant at all times
- superoxide anion production (neutrophils; plasma opsonized CPPD crystals): decrease in the amount of superoxide generated at all times
- cell viability (human keratinocytes; 10^−7 M or higher): significant drop in cell viability
- cell viability (human keratinocytes; 10^−8 M): 87 % of untreated controls
- cell viability (human keratinocytes; 10^−9 M): greater than 100 % of untreated controls
- restenosis [1]: completely prevented restenosis
- inhibitory effect on IL-1- and TNF-induced NF-κB activity (NF-κB): ~2 µM
- radiographic disease ([2]; high- and low-dose suppression groups vs control): significantly less radiographic disease
- clinical symptoms ([2]; low- and high-dose suppression protocols, i.p. from day 9): significant clinical improvement
- IgG antibodies to type II collagen (ELISA) ([2]; paclitaxel-treated rats vs control group): significantly lower
- radiographic changes / clinical arthritis ([2]; prevention protocol): None of the rats in the paclitaxel arthritis prevention protocol manifested any radiographic changes or clinical arthritis
- development of arthritis ([2]; prevention protocol: 1 mg/kg i.p. from day 2): completely precluded development of the disease
- toxic effects of the treatment ([2]; rat, in vivo): few, if any toxic effects
- EC50 (LNCaP cells): ~0.09 nM
- degradation rate constant k ([3]; 1 μg/ml paclitaxel, 1% HPβ-CD, 55° C.): 0.00338 h⁻¹
- degradation rate constant ([3]; 10% HPβ-CD (FIG. 42: 20 μg/ml, 37° C., pH 3.7)): 0.00178 h⁻¹
- degradation rate constant ([3]; 10% HPγ-CD (FIG. 42: 20 μg/ml, 37° C., pH 4.9)): 0.00096 h⁻¹
- IL-1 induced AP-1 reporter gene CAT activity [4]: reduced in chondrocytes by paclitaxel in a concentration dependent manner
- skin irritation (skin inflammation; 1% paclitaxel formulation, 20 μl to each side of the ears daily for 8 days, normal or inflamed ear skin): no detection of skin irritation
- ear swelling and skin erythema induced by PMA (skin inflammation; topical 1% paclitaxel formulation): significantly inhibited ear swelling and skin erythema
- ear swelling, delayed-type hypersensitivity reaction (oxazolone) (skin inflammation; topical 1% paclitaxel gel versus vehicle alone): significant decrease in ear swelling
- IL-1 induced AP-1 binding activity [5]: decreased
